Source: US11766478B2, “Methods for enhancing antigen-specific immune responses” (priority 2015, dated 2023)

Test system: TC-1 tumors
Assay: In vivo tumor treatment experiment, TC-1 tumor-bearing mice (tumor volume, survival)
Set-up: species or system C57BL/6 mice
Details: combinatorial treatment with cisplatin; compared to cisplatin alone
Experimental: Left panel is representative flow cytometry analysis. […] IgG antibody was used as a control. […] Left panel is representative flow cytometry.
For in vivo tumor treatment experiment using only protein, 1×10^5 TC-1 cells were injected subcutaneously into C57BL/6 mice (10 per group). After 3 days, 100 μg of each protein was injected intravenously three times with 3 day intervals. Mice were monitored for tumor growth by palpation and inspection twice a week. For in vivo combined tumor treatment experiments, 1×10^5 TC-1 cells or 5×10^5 CT 26 cells were subcutaneously injected into C57BL/6 mice (10 per group) or BALB/c mice. After 5 days, cisplatin (5 mg/kg) or saline (control) was intraperitoneally injected two times at a 3 day interval. 6 days after tumor challenge, mice received 100 μg of protein each, intravenously injected three times with 3 day intervals.

Substance: AnnexinV: Annexin V protein alone, purified from E. coli, used as control
- therapeutic anti-tumor effect in TC-1 tumor bearing mice: did not generate a significantly better therapeutic anti-tumor effect
